Assay results: US7833795B2, “Assessment of cardiovascular risk using isoprostane biomarkers and COX-2 selective inhibitors” (The Trustees of the University of Pennsylvania, priority 2004, dated 2010)
Like-named read-outs stand apart in the source and are kept apart here.

Legend:
[1] = Plasma drug concentrations by LC tandem MS; assay type: in vivo, human; details: for concentration at 4 h: human, plasma, 4 hours after dosing, single dose (rofecoxib 25 mg, celecoxib 200 mg)
[2] = test system: PGI2 biosynthesis; experiment: Urinary 2,3-dinor-6-keto PGF1α (PGI-M) in volunteers; assay type: in vivo, human; details: single dose (rofecoxib 25 mg, celecoxib 200 mg), 4 hours
Excerpt: (§1) Written informed consent was obtained from all study volunteers.
(§2) The coefficients of variation for both assays were <10%.
(§3) All variables were log transformed to approximate normality. Three extreme outlying datapoints were removed.

[3] = patients receiving rofecoxib (25 mg/day), as early as one month; cited from earlier work
[4] = molecular target: COX-1 (Homo sapiens, UniProt P23219); details: in vivo
COX-1, sequence (P23219 24-599): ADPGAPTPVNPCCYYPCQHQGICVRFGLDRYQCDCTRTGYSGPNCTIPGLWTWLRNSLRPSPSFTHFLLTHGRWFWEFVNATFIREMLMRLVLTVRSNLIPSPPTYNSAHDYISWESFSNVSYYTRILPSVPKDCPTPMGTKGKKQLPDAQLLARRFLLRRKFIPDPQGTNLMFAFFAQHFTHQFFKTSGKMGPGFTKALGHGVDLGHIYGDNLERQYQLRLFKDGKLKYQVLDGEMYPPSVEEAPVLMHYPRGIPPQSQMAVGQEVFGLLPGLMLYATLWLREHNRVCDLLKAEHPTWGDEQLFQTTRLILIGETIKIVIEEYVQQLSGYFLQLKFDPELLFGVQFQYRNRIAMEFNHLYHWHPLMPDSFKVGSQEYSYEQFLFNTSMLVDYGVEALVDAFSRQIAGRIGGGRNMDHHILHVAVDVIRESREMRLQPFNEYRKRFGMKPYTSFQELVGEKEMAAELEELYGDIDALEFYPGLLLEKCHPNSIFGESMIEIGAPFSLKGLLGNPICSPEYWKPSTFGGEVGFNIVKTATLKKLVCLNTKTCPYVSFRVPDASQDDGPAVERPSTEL
Method: (§4) Study Design: This randomized, double-blind, placebo-controlled protocol was approved by the Institutional Review Board of the University of Pennsylvania Health System and by the Advisory Council of the General Clinical Research Center (University of Pennsylvania, Philadelphia). Written informed consent was obtained from all study volunteers. […] Routine hematology, biochemistry, and urinalysis were assessed at time of screening and at 24 hours after administration of the drugs on completion of the study.
(§5) Measurements were performed immediately before the administration of drug (0 hrs) and 4 hours thereafter. […] A subset of the volunteers (n=5) progressed through the entire protocol on five occasions, each separated by two weeks, to assess intraindividual variability in drug response in five replicates.
(§6) Statistical analysis: The primary response variables were: i) ex vivo COX-2 inhibition, expressed as the ratio of postdrug to predrug plasma PGE2; ii) ex vivo COX-1 inhibition, expressed as the ratio of postdrug to predrug serum TxB2; iii) urinary PGI-M inhibition, expressed as the ratio of concentration post drug to post placebo administration; iv) urinary Tx-M inhibition, expressed as the ratio of concentration post drug to post placebo administration; and v) plasma drug concentrations four hours post drug administration. […]

[5] = molecular target: COX-2 (Homo sapiens, UniProt P35354); details: in vivo
COX-2, sequence (P35354 18-604): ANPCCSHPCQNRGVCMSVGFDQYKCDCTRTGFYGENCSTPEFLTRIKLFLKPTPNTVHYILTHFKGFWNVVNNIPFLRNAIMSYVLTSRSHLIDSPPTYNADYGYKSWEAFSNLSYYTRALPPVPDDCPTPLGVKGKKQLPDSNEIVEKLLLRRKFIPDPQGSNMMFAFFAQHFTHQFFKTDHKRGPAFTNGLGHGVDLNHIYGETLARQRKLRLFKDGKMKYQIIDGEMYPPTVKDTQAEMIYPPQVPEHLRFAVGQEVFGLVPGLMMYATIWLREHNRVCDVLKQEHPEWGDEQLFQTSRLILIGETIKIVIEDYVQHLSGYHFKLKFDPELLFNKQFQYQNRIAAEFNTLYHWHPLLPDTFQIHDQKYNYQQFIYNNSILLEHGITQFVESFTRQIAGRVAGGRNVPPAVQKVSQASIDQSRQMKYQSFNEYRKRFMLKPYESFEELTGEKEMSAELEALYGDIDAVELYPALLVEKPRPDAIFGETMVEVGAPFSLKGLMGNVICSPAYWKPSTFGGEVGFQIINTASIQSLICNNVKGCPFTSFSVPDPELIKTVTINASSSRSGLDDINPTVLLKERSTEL
Method: as §4, §5, §6

[6] = test system: TxA2 formation; experiment: Urinary 11-dehydro TxB2 (Tx-M) in volunteers; assay type: in vivo, human
Excerpt: as §1, §2, §3

CS(=O)(=O)c1ccc(C2=C(c3ccccc3)C(=O)OC2)cc1 [rofecoxib]
concentration at 4 h ([1]; read-out: plasma drug concentration, median): 215 ng/mL
concentration at 4 h ([1]; read-out: plasma drug concentration, range): 115 to 658 ng/mL
drop in plasma concentration per unit increase in BMI ([1]; rofecoxib 25 mg, 4 hours): about 2%
urinary PGI-M compared to placebo [2]: depressed urinary PGI-M
elevation of blood pressure [3]: 3-4 mm Hg
COX-1 derived serum TxB2 [4]: failed to inhibit significantly
degree of inhibition of COX-2 dependent PGE2 formation ex vivo [5]: 44.8%
COX-1 inhibition in vivo (urinary Tx-M) in Pro17Leu variant of COX-1 ([6]; rofecoxib 25 mg): absence of COX-1 inhibition in vivo
excretion of urinary Tx-M compared to placebo ([6]; single dose (rofecoxib 25 mg, celecoxib 200 mg), 4 hours): not excretion of urinary Tx-M
